Data as given in PubChem BioAssay (NCI).
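Values below derive from 48-hour exposures of cells grown in 96-well plates, with endpoints linearly interpolated between the two concentrations bracketing the appropriate inhibition level. Abbreviation: GI50, concentration required for 50% inhibition of growth. TGI: concentration producing complete growth inhibition.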

How the values were obtained:
Test in all cases: inhibition of tumour cell growth, NCI panel, 48 h
CCRF-CEM leukemia = system: CCRF-CEM leukemia
OVCAR-4 ovarian = system: OVCAR-4 ovarian
CAKI-1 renal = system: CAKI-1 renal
UACC-257 melanoma = system: UACC-257 melanoma
K-562 leukemia = system: K-562 leukemia
OVCAR-3 ovarian = system: OVCAR-3 ovarian
ACHN renal = system: ACHN renal
SF-295 CNS = system: SF-295 CNS
SF-268 CNS = system: SF-268 CNS
NCI/ADR-RES ovarian = system: NCI/ADR-RES ovarian
DU-145 prostate = system: DU-145 prostate
SN12C renal = system: SN12C renal
UO-31 renal = system: UO-31 renal
UACC-62 melanoma = system: UACC-62 melanoma
SF-539 CNS = system: SF-539 CNS
SK-MEL-5 melanoma = system: SK-MEL-5 melanoma
OVCAR-8 ovarian = system: OVCAR-8 ovarian
A498 renal = system: A498 renal
HCC-2998 colon = system: HCC-2998 colon
RPMI-8226 leukemia = system: RPMI-8226 leukemia
SK-OV-3 ovarian = system: SK-OV-3 ovarian
RXF 393 renal = system: RXF 393 renal
SNB-75 CNS = system: SNB-75 CNS
NCI-H23 lung = system: NCI-H23 lung
MCF7 breast = system: MCF7 breast
EKVX NSCLC = system: EKVX NSCLC
MOLT-4 leukemia = system: MOLT-4 leukemia
HL-60(TB) leukemia = system: HL-60(TB) leukemia
MALME-3M melanoma = system: MALME-3M melanoma
HOP-62 NSCLC = system: HOP-62 NSCLC
OVCAR-5 ovarian = system: OVCAR-5 ovarian
MDA-MB-435 = system: MDA-MB-435
HCT-15 colon = system: HCT-15 colon
TK-10 renal = system: TK-10 renal
NCI-H460 lung = system: NCI-H460 lung
HS 578T breast = system: HS 578T breast

## COc1cc(-c2ccc(-c3ccc(C(=N)N)s3)s2)cc(OC)c1OC
CCRF-CEM leukemia
  GI50: 3.42 µM
  TGI: 10.4 µM
OVCAR-4 ovarian
  GI50: 1.82 µM
  TGI: 3.95 µM
CAKI-1 renal
  GI50: 1.7 µM
  TGI: 3.28 µM
UACC-257 melanoma
  GI50: 2.22 µM
  TGI: 4.02 µM
K-562 leukemia
  GI50: 1.11 µM
  TGI: 3.41 µM
OVCAR-3 ovarian
  GI50: 2.22 µM
  TGI: 4.71 µM
ACHN renal
  GI50: 1.78 µM
  TGI: 3.17 µM
SF-295 CNS
  GI50: 1.78 µM
  TGI: 3.39 µM
SF-268 CNS
  GI50: 1.74 µM
  TGI: 3.49 µM
NCI/ADR-RES ovarian
  GI50: 3.44 µM
  TGI: 12.9 µM
DU-145 prostate
  GI50: 2.32 µM
  TGI: 5.83 µM
SN12C renal
  GI50: 1.61 µM
  TGI: 3.17 µM
UO-31 renal
  GI50: 1.74 µM
  TGI: 3.54 µM
UACC-62 melanoma
  GI50: 1.7 µM
  TGI: 3.17 µM
SF-539 CNS
  GI50: 1.58 µM
  TGI: 3.02 µM
SK-MEL-5 melanoma
  GI50: 1.52 µM
  TGI: 2.88 µM
OVCAR-8 ovarian
  GI50: 2.62 µM
  TGI: 5.31 µM
A498 renal
  GI50: 2.25 µM
  TGI: 5.83 µM
HCC-2998 colon
  GI50: 1.76 µM
  TGI: 3.24 µM
RPMI-8226 leukemia
  GI50: 2.46 µM
  TGI: 5.72 µM
SK-OV-3 ovarian
  GI50: 5.15 µM
  TGI: 18.8 µM
RXF 393 renal
  GI50: 1.66 µM
  TGI: 3.39 µM
SNB-75 CNS
  GI50: 1.5 µM
  TGI: 2.93 µM
NCI-H23 lung
  GI50: 2.61 µM
  TGI: 8.04 µM
MCF7 breast
  GI50: 1.66 µM
  TGI: 4.32 µM
EKVX NSCLC
  GI50: 1.92 µM
  TGI: 4.85 µM
MOLT-4 leukemia
  GI50: 2.4 µM
  TGI: 5 µM
HL-60(TB) leukemia
  GI50: 2.7 µM
  TGI: 5.64 µM
MALME-3M melanoma
  GI50: 1.74 µM
  TGI: 3.53 µM
HOP-62 NSCLC
  GI50: 1.97 µM
  TGI: 3.97 µM
OVCAR-5 ovarian
  GI50: 1.47 µM
  TGI: 3.25 µM
MDA-MB-435
  GI50: 1.64 µM
  TGI: 3.09 µM
HCT-15 colon
  GI50: 1.91 µM
  TGI: 4.51 µM
TK-10 renal
  GI50: 2.7 µM
  TGI: 7.34 µM
NCI-H460 lung
  GI50: 1.99 µM
  TGI: 3.64 µM

## NC(N)=Nc1ccc(-n2nc(C(F)(F)F)cc2-c2ccc3c(ccc4ccccc43)c2)cc1
CCRF-CEM leukemia
  GI50: 2.05 µM
  TGI: 5.53 µM
NCI/ADR-RES ovarian
  GI50: 3.14 µM
  TGI: 15.6 µM
RPMI-8226 leukemia
  GI50: 2.16 µM
  TGI: 5.06 µM
MOLT-4 leukemia
  GI50: 2.35 µM
  TGI: 4.92 µM
HL-60(TB) leukemia
  GI50: 1.09 µM
  TGI: 2.82 µM
HS 578T breast
  GI50: 1.59 µM
  TGI: 4.34 µM
